Assay results: patent US8921366B2, “Substituted triazolo-pyridazine derivatives” (Concert Pharmaceuticals, Inc., priority 2008, dated 2014)

Legend:
[1] = Pharmacokinetics after oral administration to rats; format: in vivo, Sprague-Dawley rats; conditions: for AUC0-6 % Change over L-838417 / AUC0-6 relative to undeuterated L-838417 / Cmax % Change over L-838417 / Cmax relative to L-838417: oral, rats; for Cmax / AUC(0-t): rat, plasma, oral gavage, 1 mg/kg each as 1:1:1 mixture, male Sprague-Dawley rats; for AUC(0-t): read-out: AUC0-6
Method: (§1) Three male Sprague-Dawley rats (200-250 g each) were cannulated in the jugular vein and were administered a single dose containing 1 mg/kg each of L-838417, Compound 103 and Compound 105 (as a 1:1:1 mixture containing 1 mg/mL of each of the three compounds in 10% dimethyl sulfoxide (DMSO), 10% N,N-dimethylacetamide (DMA), and 60% polyethylene glycol (PG) through the jugular cannula. Three additional male Sprague-Dawley rats (200-250 g each) were administered a single dose containing 1 mg/kg each of L-838417, Compound 103 and Compound 105 (as a 1:1:1 mixture containing 1 mg/mL of each of the three compounds in 10% dimethyl sulfoxide (DMSO), 10% N,N-dimethylacetamide (DMA), and 60% polyethylene glycol (PG) by oral gavage. Blood (0.25 mL) from intravenously treated test rats was collected retro-orbitally at 2, 5, 15, and 30 minutes, and 1, 2, 4, and 6 hours post-dosing. Blood (0.25 mL) from orally treated test rats was collected retro-orbitally at 5, 15, 30, and 45 minutes, and 1, 2, 4, and 6 hours post-dosing. Blood was collected into tubes containing K2EDTA as anticoagulant at the above mentioned time points. Blood samples were stored on ice and then centrifuged to obtain plasma. The plasma (˜[…]) was aliquoted into deep 96-well plates and stored at −80° C. until analysis by LC-MS/MS using an Applied Bio-systems API 4000 mass spectrometer.

[2] = Metabolic stability in human liver microsomes; format: in vitro ADME; conditions: for stability in human liver microsomes: 30 minute incubation
Method: (§2) Human liver microsomes (20 mg/mL) and rat liver microsomes (20 mg/mL) were obtained from Xenotech, LLC (Lenexa, Kans.). β-nicotinamide adenine dinucleotide phosphate, reduced form (NADPH), magnesium chloride (MgCl2), and dimethyl sulfoxide (DMSO) were purchased from Sigma-Aldrich. 7.5 mM stock solutions of test compounds (L-838417, Compound 101, Compound 103, Compound 104 and Compound 105) were prepared in DMSO. The 7.5 mM stock solutions were diluted to 12.5 μM in acetonitrile (ACN). The 20 mg/mL […] were diluted to […] in 0.1 M potassium phosphate buffer, pH 7.4, containing 3 mM MgCl2. The diluted microsomes (375 μL) were added to wells of a 96-well deep-well polypropylene plate in triplicate. 10 μL of the 12.5 μM test compound was added to the microsomes and the mixture was pre-warmed for 10 minutes. Reactions were initiated by addition of 125 μL pre-warmed NADPH solution. The final reaction volume is 0.5 mL and contained 0.5 mg/mL human liver microsomes, 0.25 μM test compound, and 2 mM NADPH in 0.1 M potassium phosphate buffer, pH 7.4, and 3 mM MgCl2. The reaction mixtures are incubated at 37° C., and 50 μL aliquots were removed at 0, 5, 10, 20, and 30 minutes and added to shallow-well 96-well plates which contained 50 μL of ice-cold ACN with internal standard to stop the reactions. The plates were stored at 4° C. for 20 minutes after which 100 μL of water was added to the wells of the plate before centrifugation to pellet precipitated proteins. Supernatants were transferred to another 96-well plate and analyzed for amounts of parent remaining by LC-MS/MS using an Applied Bio-systems API 4000 mass spectrometer. 7-ethoxycoumarin (1 μM) was used as a positive control. The in vitro t1/2s for test compounds were calculated from the slopes of the linear regression of % parent remaining (ln) vs incubation time relationship, using the formula: in vitro t1/2=0.693/k, where k=−[slope of linear regression of % parent remaining(ln) vs incubation time] Data analysis is performed using Microsoft Excel Software.

[3] = Metabolic stability in rat liver microsomes; format: in vitro ADME; conditions: for stability in rat microsomes / parent compound remained intact: 30 minutes incubation; for half-life at 0.25 µM: pH 7.4, calculated from slope of ln % parent remaining vs time, read-out: in vitro half-life
Method: as §2

[4] = Pharmacokinetics after intravenous administration to rats; format: in vivo, Sprague-Dawley rats; conditions: for clearance / half-life / AUC(0-t): rat, plasma, 1 mg/kg each as 1:1:1 mixture, male Sprague-Dawley rats; for AUC(0-t): read-out: AUC0-6; for AUC0-6 % Change over L-838417 / AUC0-6 relative to undeuterated L-838417 / CL % Change over L-838417 / cleared more slowly than L-838417 / longer half-life than undeuterated L-838417 / t1/2 % Change over L-838417: rats
Method: as §1

Structure (SMILES)	AUC0-6 % Change over L-838417 [1]	AUC0-6 relative to undeuterated L-838417 [1]	Cmax % Change over L-838417 [1]	Cmax relative to L-838417 [1]	Cmax [1] [ng/mL]	AUC(0-t) [1] [ng·h/mL]	stability in human liver microsomes [2]	stability in rat microsomes [3]	clearance [4] [mL/min/kg]	half-life [4] [min]	AUC(0-t) [4] [ng·h/mL]	AUC0-6 % Change over L-838417 [4]	AUC0-6 relative to undeuterated L-838417 [4]	CL % Change over L-838417 [4] [%]	cleared more slowly than L-838417 [4]	longer half-life than undeuterated L-838417 [4]	t1/2 % Change over L-838417 [4]	parent compound remained intact [3]	half-life at 0.25 µM [3] [min]	also measured
[2H]C([2H])([2H])C(c1cc2nnc(-c3cc(F)ccc3F)n2nc1OCc1ncnn1C)(C([2H])([2H])[2H])C([2H])([2H])[2H] [Compound 103, 7-(tert-Butyl-d9)-3-(2,5-difluorophenyl)-6-((1-methyl-1H-1,2,4-triazol-5-yl)methoxy)-[1,2,4]triazolo[4,3-b]pyridazine]	+156%	greater than two and a half-fold higher	+116%	greater than two-fold higher	277 ± 76	1260 ± 289	stable	stable	8	75 ± 8.4	1920 ± 200	+131%	greater than two-fold higher	−62	approximately 60%	approximately 80%	+79%	–	–	–
Cn1ncnc1COc1nn2c(-c3cc(F)ccc3F)nnc2cc1C(C)(C)C [Compound L-838417, 7-tert-butyl-3-(2,5-difluorophenyl)-6-(1-methyl-1H-1,2,4-triazol-5-ylmethoxy)[1,2,4]triazolo[4,3-b]pyridazine, reference compound]	–	–	–	–	128 ± 40	491 ± 95	–	–	18.3	42 ± 2.4	831 ± 86	–	–	–	–	–	–	approximately 70%	50.5	parent compound remained intact ([2]; 30 minutes incubation, 0.25 μM test compound, 37° C.): approximately 70%; half-life at 0.25 µM ([2]; pH 7.4, calculated from slope of ln % parent remaining vs time, read-out: in vitro half life): 54.4 min
[2H]C([2H])(Oc1nn2c(-c3cc(F)ccc3F)nnc2cc1C(C)(C)C)c1ncnn1C([2H])([2H])[2H] [Compound 101, 7-tert-Butyl-3-(2,5-difluorophenyl)-6-((1-(methyl-d3)-1H-1,2,4-triazol-5-yl)-1,1-d2-methoxy)-[1,2,4]triazolo[4,3-b]pyridazine]	–	–	–	–	–	–	stable	–	–	–	–	–	–	–	–	–	–	approximately 70%	52.7	–
[2H]C([2H])([2H])n1ncnc1COc1nn2c(-c3cc(F)ccc3F)nnc2cc1C(C([2H])([2H])[2H])(C([2H])([2H])[2H])C([2H])([2H])[2H] [Compound 104, 7-(tert-Butyl-d9)-3-(2,5-difluorophenyl)-6-((1-(methyl-d3)-1H-1,2,4-triazol-5-yl)-methoxy)-[1,2,4]triazolo[4,3-b]pyridazine]	–	–	–	–	–	–	stable	stable	–	–	–	–	–	–	–	–	–	–	–	–
[2H]C([2H])(Oc1nn2c(-c3cc(F)ccc3F)nnc2cc1C(C([2H])([2H])[2H])(C([2H])([2H])[2H])C([2H])([2H])[2H])c1ncnn1C([2H])([2H])[2H] [Compound 105, 7-(tert-Butyl-d9)-3-(2,5-difluorophenyl)-6-((1-(methyl-d3)-1H-1,2,4-triazol-5-yl)-1,1-d2-methoxy)-[1,2,4]triazolo[4,3-b]pyridazine]	+154%	greater than two and a half-fold higher	+119%	greater than two-fold higher	280 ± 80	1250 ± 272	stable	stable	7.67	76.2 ± 8.4	1960 ± 190	+136%	greater than two-fold higher	−60	approximately 60%	approximately 80%	+81%	–	–	–
